What was measured:
crabgrass = test: Test A pre-/postemergence greenhouse test; assay type: in vivo, Digitaria sanguinalis; settings: for Crabgrass, Large plant response rating: 0 to 100 scale; for Plant response rating, Crabgrass, Large: 0 to 100 scale where 0 is no effect and 100 is complete control
In short: (§1)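 Visual injury ratings against untreated controls, taken roughly ten days after treatment in greenhouse. Plants were sprayed postemergence at one- to two-leaf stage (2–10 cm tall); at the same time, seeded loam/sand soil received a directed preemergence spray. Formulation: non-phytotoxic solvent mixture with surfactant.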

morningglory = test: Test A pre-/postemergence greenhouse test; assay type: in vivo, Ipomoea spp.; settings: for Morningglory plant response rating: 0 to 100 scale; for Plant response rating, Morningglory: 0 to 100 scale where 0 is no effect and 100 is complete control
In short: as §1

redroot pigweed = test: Test A pre-/postemergence greenhouse test; assay type: in vivo, Amaranthus retroflexus; settings: for Pigweed plant response rating: 0 to 100 scale; for Plant response rating, Pigweed: 0 to 100 scale where 0 is no effect and 100 is complete control
In short: as §1

blackgrass = test: Test C pre-/postemergence test; assay type: in vivo, Alopecurus myosuroides; settings: for Plant response rating, Blackgrass: 31 g ai/ha, scale 0 to 100 (0 no effect, 100 complete control); for Plant response rating (0 to 100), Blackgrass: 250 g ai/ha
In short: (§2)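 Seeds were planted and treated preemergence with test chemical in a non-phytotoxic solvent mixture containing surfactant. Postemergence applications of the same formulation went onto plants 2 to 18 cm tall (1- to 4-leaf stage). A dash marks no test result.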

green foxtail = test: Test C pre-/postemergence test; assay type: in vivo, Setaria viridis; settings: Preemergence; for Foxtail, Green plant response rating: 62 g ai/ha, scale 0 to 100; for Plant response rating, Foxtail, Green: 31 g ai/ha, scale 0 to 100 (0 no effect, 100 complete control); for Plant response rating (0 to 100), Foxtail, Green: 250 g ai/ha
In short: as §2

Italian ryegrass = test: Test C pre-/postemergence test; assay type: in vivo, Lolium multiflorum; settings: Preemergence; for Ryegrass, Italian plant response rating: 62 g ai/ha, scale 0 to 100; for Plant response rating, Ryegrass, Italian: 31 g ai/ha, scale 0 to 100 (0 no effect, 100 complete control)
In short: as §2

wheat = test: Test C pre-/postemergence test; assay type: in vivo, Triticum aestivum; settings: Preemergence; for Wheat plant response rating: 62 g ai/ha, scale 0 to 100; for Plant response rating, Wheat: 31 g ai/ha, scale 0 to 100 (0 no effect, 100 complete control)
In short: as §2

wild oat = test: Test C pre-/postemergence test; assay type: in vivo, Avena fatua; settings: Preemergence; for Oat, Wild plant response rating: 62 g ai/ha, scale 0 to 100; for Plant response rating, Oat, Wild: 31 g ai/ha, scale 0 to 100 (0 no effect, 100 complete control)
In short: as §2

corn = test: Test C pre-/postemergence test; assay type: in vivo, Zea mays; settings: for Plant response rating, Corn: 31 g ai/ha, scale 0 to 100 (0 no effect, 100 complete control); for Plant response rating (0 to 100), Corn: 250 g ai/ha
In short: as §2

woolly cupgrass = test: Test C pre-/postemergence test; assay type: in vivo, Eriochloa villosa; settings: Preemergence; for Cupgrass, Woolly plant response rating: 62 g ai/ha, scale 0 to 100; for Plant response rating, Cupgrass, Woolly: 31 g ai/ha, scale 0 to 100 (0 no effect, 100 complete control); for Plant response rating (0 to 100), Cupgrass, Woolly: 250 g ai/ha
In short: as §2

Goosegrass = test: Test C pre-/postemergence test; assay type: in vivo, Eleusin indica; settings: Preemergence; for Goosegrass plant response rating: 62 g ai/ha, scale 0 to 100; for Plant response rating, Goosegrass: 31 g ai/ha, scale 0 to 100 (0 no effect, 100 complete control); for Plant response rating (0 to 100), Goosegrass: 250 g ai/ha
In short: as §2

eastern black nightshade = test: Test C pre-/postemergence test; assay type: in vivo, Solanum ptycanthum; settings: Preemergence; for Nightshade plant response rating: 62 g ai/ha, scale 0 to 100; for Plant response rating, Nightshade: 31 g ai/ha, scale 0 to 100 (0 no effect, 100 complete control)
In short: as §2

yellow nutsedge = test: Test C pre-/postemergence test; assay type: in vivo, Cyperus esculentus; settings: Preemergence; for Nutsedge, Yellow plant response rating: 62 g ai/ha, scale 0 to 100; for Plant response rating, Nutsedge, Yellow: 31 g ai/ha, scale 0 to 100 (0 no effect, 100 complete control)
In short: as §2

common ragweed = test: Test C pre-/postemergence test; assay type: in vivo, Ambrosia elation; settings: Preemergence; for Ragweed plant response rating: 62 g ai/ha, scale 0 to 100; for Plant response rating, Ragweed: 31 g ai/ha, scale 0 to 100 (0 no effect, 100 complete control)
In short: as §2

[1] = system: common (oilseed) sunflower; test: Test C pre-/postemergence test; assay type: in vivo, Helianthus annuus; settings: Preemergence; for Sunflower plant response rating: 62 g ai/ha, scale 0 to 100; for Plant response rating, Sunflower: 31 g ai/ha, scale 0 to 100 (0 no effect, 100 complete control)
In short: as §2

umbrella sedge = test: Test C flooded paddy test; assay type: in vivo, Cyperus difformis; settings: Flood
In short: (§3)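 Under a constant 3 cm flood, test compounds went directly into the paddy water. Following 13 to 15 days of greenhouse growth, treated species and controls were compared by eye.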

duck salad = test: Test C flooded paddy test; assay type: in vivo, Heteranthera limosa; settings: Flood
In short: as §3

[2] = Postemergence, 125 g ai/ha, 0 is no effect, 100 is complete control
[3] = Postemergence, 500 g ai/ha, 0 is no effect, 100 is complete control
[4] = Preemergence, 125 g ai/ha, 0 no effect, 100 complete control
[5] = 62 g ai/ha, Preemergence, scale 0 to 100
[6] = preemergence, 125 g ai/ha, scale 0 (no effect) to 100 (complete control)
[7] = 31 g ai/ha, scale 0 to 100 (0 no effect, 100 complete control)
[8] = 62 g ai/ha, scale 0 to 100, 0 no effect, 100 complete control, 13 to 15 days
[9] = 125 g ai/ha, scale 0 to 100, 0 no effect, 100 complete control, 13 to 15 days
[10] = 250 g ai/ha, scale 0 to 100, 0 no effect, 100 complete control, 13 to 15 days
[11] = 250 g ai/ha, scale 0 to 100 (0 no effect, 100 complete control)

Cn1nc(C(F)(F)F)c(CS(=O)(=O)c2cc(C(C)(C)C)cc[n+]2[O-])c1OC(F)F [Compound 25]
0: Morningglory plant response rating (morningglory; [4]) | Blackgrass plant response rating (blackgrass; [5]) | Plant response rating, Blackgrass (blackgrass; Preemergence) | Plant response rating (0 to 100), Blackgrass (blackgrass; Preemergence) | Blackgrass plant response rating (blackgrass; [6]) | Ryegrass, Italian plant response rating (Italian ryegrass) | Plant response rating, Ryegrass, Italian (Italian ryegrass) | Plant response rating, Wheat (wheat) | Plant response rating, Oat, Wild (wild oat) | Plant response rating, Corn (corn; Preemergence) | Plant response rating, Nutsedge, Yellow (yellow nutsedge) | Plant response rating, Ragweed (common ragweed) | Sunflower plant response rating [1] | Plant response rating, Sunflower [1] | Plant response rating, Sedge, Umbrella (umbrella sedge; [7]) | Plant response rating, Ducksalad (duck salad; [7])
85: Oat, Wild plant response rating (wild oat) | Plant response rating, Sedge, Umbrella (umbrella sedge; [10])
60: Morningglory plant response rating (morningglory; [3]) | Plant response rating (0 to 100), Corn (corn; Preemergence) | Corn plant response rating (corn; [6]) | Cupgrass, Woolly plant response rating (woolly cupgrass) | Plant response rating, Ducksalad (duck salad; [9])
10: Crabgrass, Large plant response rating (crabgrass; [2]) | Morningglory plant response rating (morningglory; [2]) | Ragweed plant response rating (common ragweed)
40: Pigweed plant response rating (redroot pigweed; [3]) | Plant response rating, Cupgrass, Woolly (woolly cupgrass) | Plant response rating, Ducksalad (duck salad; [8])
20: Wheat plant response rating (wheat) | Corn plant response rating (corn; [5])
30: Pigweed plant response rating (redroot pigweed; [2])
70: Crabgrass, Large plant response rating (crabgrass; [3])
80: Plant response rating, Morningglory (morningglory; Preemergence, 500 g ai/ha) | Plant response rating, Foxtail, Green (green foxtail) | Nutsedge, Yellow plant response rating (yellow nutsedge) | Plant response rating, Sedge, Umbrella (umbrella sedge; [8]) | Plant response rating, Sedge, Umbrella (umbrella sedge; [9]) | Plant response rating, Ducksalad (duck salad; [11])
90: Crabgrass, Large plant response rating (crabgrass; [4])
100: Plant response rating, Crabgrass, Large (crabgrass; Preemergence, 500 g ai/ha) | Pigweed plant response rating (redroot pigweed; [4]) | Plant response rating, Pigweed (redroot pigweed; Preemergence, 500 g ai/ha) | Plant response rating (0 to 100), Foxtail, Green (green foxtail) | Plant response rating (0 to 100), Cupgrass, Woolly (woolly cupgrass) | Goosegrass plant response rating (Goosegrass) | Plant response rating, Goosegrass (Goosegrass) | Plant response rating (0 to 100), Goosegrass (Goosegrass) | Nightshade plant response rating (eastern black nightshade) | Plant response rating, Nightshade (eastern black nightshade)
98: Foxtail, Green plant response rating (green foxtail)

Cn1nc(C(F)(F)F)c(C[S+]([O-])c2ccc(Cl)c[n+]2[O-])c1Cl (racemic) [Compound 17]
50: Morningglory plant response rating (morningglory; [3])
80: Crabgrass, Large plant response rating (crabgrass; [2]) | Pigweed plant response rating (redroot pigweed; [3]) | Blackgrass plant response rating (blackgrass; [5]) | Plant response rating, Blackgrass (blackgrass; Preemergence) | Nutsedge, Yellow plant response rating (yellow nutsedge) | Plant response rating, Ducksalad (duck salad; [8])
70: Plant response rating, Foxtail, Green (green foxtail) | Plant response rating, Nutsedge, Yellow (yellow nutsedge)
10: Morningglory plant response rating (morningglory; [2]) | Morningglory plant response rating (morningglory; [4]) | Plant response rating, Wheat (wheat) | Plant response rating, Ragweed (common ragweed)
0: Plant response rating, Oat, Wild (wild oat) | Plant response rating, Sunflower [1]
30: Plant response rating, Ryegrass, Italian (Italian ryegrass) | Wheat plant response rating (wheat)
95: Plant response rating, Cupgrass, Woolly (woolly cupgrass) | Plant response rating, Sedge, Umbrella (umbrella sedge; [9]) | Plant response rating, Sedge, Umbrella (umbrella sedge; [10]) | Plant response rating, Ducksalad (duck salad; [11])
90: Crabgrass, Large plant response rating (crabgrass; [3]) | Crabgrass, Large plant response rating (crabgrass; [4]) | Plant response rating, Morningglory (morningglory; Preemergence, 500 g ai/ha)
98: Corn plant response rating (corn; [6]) | Plant response rating, Nightshade (eastern black nightshade)
5: Sunflower plant response rating [1]
100: Plant response rating, Crabgrass, Large (crabgrass; Preemergence, 500 g ai/ha) | Pigweed plant response rating (redroot pigweed; [4]) | Plant response rating, Pigweed (redroot pigweed; Preemergence, 500 g ai/ha) | Plant response rating (0 to 100), Blackgrass (blackgrass; Preemergence) | Foxtail, Green plant response rating (green foxtail) | Plant response rating (0 to 100), Foxtail, Green (green foxtail) | Plant response rating (0 to 100), Corn (corn; Preemergence) | Cupgrass, Woolly plant response rating (woolly cupgrass) | Plant response rating (0 to 100), Cupgrass, Woolly (woolly cupgrass) | Goosegrass plant response rating (Goosegrass) | Plant response rating, Goosegrass (Goosegrass) | Plant response rating (0 to 100), Goosegrass (Goosegrass) | Nightshade plant response rating (eastern black nightshade)
85: Blackgrass plant response rating (blackgrass; [6]) | Corn plant response rating (corn; [5]) | Plant response rating, Sedge, Umbrella (umbrella sedge; [8]) | Plant response rating, Ducksalad (duck salad; [9])
40: Pigweed plant response rating (redroot pigweed; [2]) | Oat, Wild plant response rating (wild oat)
75: Ragweed plant response rating (common ragweed)
60: Ryegrass, Italian plant response rating (Italian ryegrass) | Plant response rating, Corn (corn; Preemergence) | Plant response rating, Sedge, Umbrella (umbrella sedge; [7]) | Plant response rating, Ducksalad (duck salad; [7])
